Source: PubChem BioAssay (NCI)
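Results reflect a 48-hour exposure of cells in 96-well plates to compound at five concentrations. The concentration for 50% growth inhibition is given as GI50. TGI denotes the concentration required for complete inhibition of growth.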

Legend:
Test in all cases: NCI-60 cell line screen, 48 h
[1] = system: SK-MEL-28 melanoma
[2] = system: UO-31 renal
[3] = system: PC-3 prostate
[4] = system: OVCAR-3 ovarian
[5] = system: DU-145 prostate
[6] = system: SF-268 CNS
[7] = system: A498 renal
[8] = system: UACC-257 melanoma
[9] = system: MDA-MB-231 breast
[10] = system: 786-0 renal
[11] = system: TK-10 renal
[12] = system: SW-620 colon
[13] = system: NCI-H460 lung
[14] = system: ACHN renal
[15] = system: HOP-62 NSCLC
[16] = system: SK-OV-3 ovarian
[17] = system: A549 NSCLC
[18] = system: HOP-92 NSCLC
[19] = system: SF-539 CNS

For `Fc1ccc2c(c1)c(-c1nc(-c3c[nH]c4ncccc34)cs1)cn2CCCCN1CCCCC1`, the GI50 [1] was 1780 nM, the TGI [1] was 3320 nM and the GI50 [2] was 1230 nM. The TGI [2] was 2570 nM, the GI50 [3] was 1490 nM and the TGI [3] was 2890 nM. For the same molecule, the GI50 [4] was 1750 nM, the TGI [4] was 3200 nM and the GI50 [5] was 1760 nM. It also gave a TGI [5] of 3210 nM, a GI50 [6] of 1630 nM and a TGI [6] of 3220 nM. For the same molecule, the GI50 [7] was 1510 nM, the TGI [7] was 3050 nM and the GI50 [8] was 1760 nM. The TGI [8] was 3330 nM, the GI50 [9] was 1610 nM and the TGI [9] was 3040 nM. It also gave a GI50 [10] of 1620 nM, a TGI [10] of 3070 nM and a GI50 [11] of 2300 nM. The TGI [11] was 3890 nM, the GI50 [12] was 1740 nM and the TGI [12] was 3240 nM. The GI50 [13] was 1810 nM, the TGI [13] was 3470 nM and the GI50 [14] was 1670 nM. For the same molecule, the TGI [14] was 3100 nM, the GI50 [15] was 1530 nM and the TGI [15] was 3010 nM. It also gave a GI50 [16] of 1720 nM, a TGI [16] of 3140 nM and a GI50 [17] of 1770 nM. It also gave a TGI [17] of 3310 nM, a GI50 [18] of 1160 nM and a TGI [18] of 2480 nM. It also gave a GI50 [19] of 1610 nM and a TGI [19] of 3020 nM.
